Test results as given in patent US8143296B2, “Thiazole-based compound and inhibitor of T-type calcium channel containing the same” (Korea Institute of Science and Technology, priority 2006, dated 2012).
Counter-ions that a name gives are not always drawn.

Molecular target: T1, α1G T-type calcium channel (Homo sapiens, UniProt O43497)
T1 construct: host or cells: HEK293
Experiment: Assay for % inhibiting activity against T-type calcium channel using FDSS6000
Type: cell-based
Details: 10 μM; HEK293 cells expressing α1G; Table 3 (Chemical Formula 2 series); hydrochloride
Method: In the present invention, in order to search an efficient inhibitor against T-type calcium channel, a primary assay for T-type calcium channel inhibiting activity was conducted by a high-efficient assay using FDSS6000, wherein mammal HEK293 cell lines (originated from human kidney carcinoma cells) which specifically expresses α1G of T-type calcium channel was used for primary assay. Through the primary assay, compounds which show meaningful inhibition effects were selected. The selected compounds were used in a second assay for T-type calcium channel inhibiting activity using electrophysiological whole cell patch clamp method, wherein mammal HEK293 cell lines (originated from human kidney carcinoma cells) which specifically expresses α1G of T-type calcium channel was used for the second assay.
At 12-24 hours before being used for this assay, cells of HEK293 cell line (α1G cell line: KCTC 10519BP, Korean Collection for Type Cultures), which stably express α1G T-type calcium channel and Kir2.1, were sub-cultured in a poly-L-lysine treated 96-well plate with the density of 4×10^4 per a well using a 96-well cell dispenser (Titertek). On the of assay, the 96-well plate to which the cells were attached were washed three times with HEPES buffer solution (150 mM of NaCl, 5 mM of KCl, 1 mM of MgCl2, 2 mM of CaCl2, 10 mM of HEPES, 10 mM of glucose; pH 7.4) using a 96-well plate automatic washing device (Bio Tek), then reacted with HEPES buffer solution containing 5 μM fluo-3/AM and 0.001% Pluronic F-127 under room temperature for 1 hour, to label with fluorescent dye, and then further washed two times with HEPES buffer solution.
Thereafter, at 10 minutes before the measurement using device FDSS6000, a washing with HEPES buffer solution containing 10 mM CaCl2 was conducted once more, and the final volume was adjusted to 81 μl. Besides the above 96-well plate containing the cells, additional two drug 96-well plates were provided, wherein the 96-well plates contain inhibiting drug and KCl (final concentration: 75 mM) for activating T-type calcium channel, respectively. Since most of cell-based HTS devices are equipped with a liquid application system for injection of drug, but have no liquid sucking system, the inhibiting drug to be tested and KCl were respectively provided at the five-times higher concentration in 10 mM CaCl2 HEPES buffer solution at the amount of 27 μl, diluted five-times at the final cell plate volume of 135 μl, and then used in this test. The concrete method of measurement using FDSS6000 was as follows: After recording the reference value of 20 seconds, the change of intracellular Ca^2+ concentration which induced by treatment of the inhibiting drug to be tested for 75 seconds followed by administration of KCl was measured, wherein the percentage (%) inhibition effect of the test drug, through estimating the area of ratio value of 340/380 in the control without treatment of the test drug as 100%. As a reference drug, mibefradil was used.
For accurate calcium-imagination, the light source of 4 xenon lamps in FDSS6000 were radiated to make the cells exposed selectively to the excitation wavelength (340 nm and 380 nm) by computer-controlled filter wheel. Data was obtained at interval of each 1.23 second. The emitter fluorescence light inflowed through long-pass filter was obtained as an average 340/380 ratio value for each well in the 96-wells by using CCD camera and digital fluorescence analyzer in FDSS6000. All image data and analyses were obtained by using FDSS6000-exclusive program provide from Hamamatsu Photonics.

T1 sequence (O43497 whole entry): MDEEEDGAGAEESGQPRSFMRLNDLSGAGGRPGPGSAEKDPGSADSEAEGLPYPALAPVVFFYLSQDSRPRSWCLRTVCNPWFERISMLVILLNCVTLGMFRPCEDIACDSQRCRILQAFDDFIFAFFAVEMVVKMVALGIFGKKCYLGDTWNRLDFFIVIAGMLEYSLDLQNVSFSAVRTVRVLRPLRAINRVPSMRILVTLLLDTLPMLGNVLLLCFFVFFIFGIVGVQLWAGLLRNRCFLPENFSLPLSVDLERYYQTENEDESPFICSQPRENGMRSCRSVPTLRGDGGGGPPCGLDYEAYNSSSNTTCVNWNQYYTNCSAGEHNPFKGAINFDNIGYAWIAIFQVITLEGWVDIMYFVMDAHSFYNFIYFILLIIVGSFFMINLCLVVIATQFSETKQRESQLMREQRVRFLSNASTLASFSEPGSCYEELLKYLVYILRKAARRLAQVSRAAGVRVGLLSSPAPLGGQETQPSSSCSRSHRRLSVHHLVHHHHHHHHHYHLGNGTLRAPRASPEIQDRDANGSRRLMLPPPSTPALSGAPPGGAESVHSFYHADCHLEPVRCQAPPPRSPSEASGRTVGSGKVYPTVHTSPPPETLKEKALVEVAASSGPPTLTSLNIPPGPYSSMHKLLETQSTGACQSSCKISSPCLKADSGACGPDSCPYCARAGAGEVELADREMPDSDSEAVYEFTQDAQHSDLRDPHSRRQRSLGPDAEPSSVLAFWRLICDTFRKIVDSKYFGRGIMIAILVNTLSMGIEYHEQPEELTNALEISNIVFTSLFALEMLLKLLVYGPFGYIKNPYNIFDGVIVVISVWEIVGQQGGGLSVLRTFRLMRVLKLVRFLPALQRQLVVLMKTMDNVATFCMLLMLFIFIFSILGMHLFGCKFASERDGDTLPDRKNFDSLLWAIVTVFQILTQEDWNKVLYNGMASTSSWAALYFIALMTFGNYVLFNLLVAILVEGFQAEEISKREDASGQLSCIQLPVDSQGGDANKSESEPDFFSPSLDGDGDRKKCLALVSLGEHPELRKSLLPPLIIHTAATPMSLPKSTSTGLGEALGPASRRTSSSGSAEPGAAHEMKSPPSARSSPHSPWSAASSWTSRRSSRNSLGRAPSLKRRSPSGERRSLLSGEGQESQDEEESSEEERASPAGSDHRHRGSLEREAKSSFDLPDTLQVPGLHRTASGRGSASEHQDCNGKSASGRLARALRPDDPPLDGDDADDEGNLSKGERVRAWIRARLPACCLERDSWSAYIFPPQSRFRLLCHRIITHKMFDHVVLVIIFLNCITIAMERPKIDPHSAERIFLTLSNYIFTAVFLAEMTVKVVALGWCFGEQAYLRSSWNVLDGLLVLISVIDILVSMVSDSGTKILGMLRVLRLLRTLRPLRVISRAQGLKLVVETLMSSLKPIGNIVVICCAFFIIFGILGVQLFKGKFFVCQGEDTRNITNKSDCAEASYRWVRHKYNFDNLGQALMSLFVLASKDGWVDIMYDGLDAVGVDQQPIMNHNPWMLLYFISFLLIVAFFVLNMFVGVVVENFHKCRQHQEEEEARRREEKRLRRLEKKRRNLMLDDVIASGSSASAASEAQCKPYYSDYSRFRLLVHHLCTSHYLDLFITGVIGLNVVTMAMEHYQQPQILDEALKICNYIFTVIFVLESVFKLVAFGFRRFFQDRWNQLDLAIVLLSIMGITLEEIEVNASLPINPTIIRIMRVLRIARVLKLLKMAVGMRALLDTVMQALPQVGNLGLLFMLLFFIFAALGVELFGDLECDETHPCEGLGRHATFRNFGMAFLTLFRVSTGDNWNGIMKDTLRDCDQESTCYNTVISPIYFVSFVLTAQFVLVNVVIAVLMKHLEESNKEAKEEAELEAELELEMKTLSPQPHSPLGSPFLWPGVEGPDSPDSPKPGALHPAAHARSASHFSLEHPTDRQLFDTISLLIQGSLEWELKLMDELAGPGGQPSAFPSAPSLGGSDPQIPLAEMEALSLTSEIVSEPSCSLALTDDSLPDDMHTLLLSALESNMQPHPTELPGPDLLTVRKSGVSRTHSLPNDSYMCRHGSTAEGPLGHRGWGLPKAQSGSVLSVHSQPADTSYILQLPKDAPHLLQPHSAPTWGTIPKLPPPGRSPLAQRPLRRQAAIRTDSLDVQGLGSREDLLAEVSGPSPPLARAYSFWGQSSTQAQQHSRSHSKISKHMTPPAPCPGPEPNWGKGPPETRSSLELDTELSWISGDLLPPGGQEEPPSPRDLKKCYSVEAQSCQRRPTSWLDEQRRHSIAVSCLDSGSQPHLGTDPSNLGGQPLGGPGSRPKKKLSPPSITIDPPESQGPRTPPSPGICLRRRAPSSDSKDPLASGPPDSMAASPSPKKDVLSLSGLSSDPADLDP

First: Cc1ccc(NC(=O)Cc2csc(N=C(N)N)n2)cc1Cl.Cl [KHG23170, N-(3-chloro-4-methylphenyl)-2-(2-(diaminomethyleneamino)thiazole-4-yl)acetamide hydrochloride]
Second: COc1ccc(NC(=O)Cc2csc(N=C(N)N)n2)cc1F.Cl [KHG23399, 2-(2-(diaminomethyleneamino)thiazole-4-yl)-N-(3-fluoro-4-methoxyphenyl)acetamide hydrochloride]
The “% Inhibition [α1G, 10 μM) using FDSS6000” value of the first is higher: 30.68% for the first, 3.4% for the second.

Going from `CCCCCCc1ccc(NC(=O)Cc2csc(N=C(N)N)n2)cc1.Cl` [KHG23386, 2-(2-(diaminomethyleneamino)thiazole-4-yl)-N-(4-hexylphenyl)acetamide hydrochloride] to `Cc1ccc(NC(=O)Cc2csc(N=C(N)N)n2)cc1Cl.Cl` [KHG23397, N-(3-chloro-4-methylphenyl)-2-(2-(diaminomethyleneamino)thiazole-4-yl)acetamide hydrochloride], the “% Inhibition [α1G, 10 μM) using FDSS6000” value rises from 4.5% to 14.2%.

Same assay, conditions: 10 μM; HEK293 cells expressing α1G; Table 4 (Chemical Formula 3 series); hydrobromide

In the case of `Br.NC(N)=Nc1nc(-c2ccc([N+](=O)[O-])cc2)cs1` [KHG24375, 2-(4-(4-nitrophenyl)thiazole-2-yl)guanidine hydrobromide], the “% Inhibition [α1G, 10 μM) using FDSS6000” value was 19.90%.

Same assay, conditions: HEK293, 10 μM; HEK293 cells expressing α1G; Table 3 (Chemical Formula 2 series)

First: NC(N)=Nc1nc(CC(=O)Nc2cc([N+](=O)[O-])ccc2F)cs1 [KHG23168, 2-(2-(diaminomethyleneamino)thiazole-4-yl)-N-(2-fluoro-5-nitrophenyl)acetamide hydrochloride]
Second: Cl.NC(N)=Nc1nc(CC(=O)Nc2cc(Cl)ccc2F)cs1 [KHG23172, N-(5-chloro-2-fluorophenyl)-2-(2-(diaminomethyleneamino)thiazole-4-yl)acetamide hydrochloride]
The inhibition at 10 µM of the first is lower: 21.6% for the first, 27.6% for the second.

Going from `Cl.NC(N)=Nc1nc(CC(=O)Nc2ccc(F)cc2Cl)cs1` [KHG23169, N-(2-chloro-4-fluorophenyl)-2-(2-(diaminomethyleneamino)thiazole-4-yl)acetamide hydrochloride] to `Cl.NC(N)=Nc1nc(CC(=O)Nc2ccc(F)cc2)cs1` [KHG23171, 2-(2-(diaminomethyleneamino)thiazole-4-yl)-N-(4-fluorophenyl)acetamide hydrochloride], the inhibition at 10 µM falls from 23.2% to 21.5%.

Going from `NC(N)=Nc1nc(CC(=O)NCCc2ccc(F)cc2)cs1` [KHG23190, 2-(2-(diaminomethyleneamino)thiazole-4-yl)-N-(4-fluorophenethyl)acetamide hydrochloride] to `N#CCc1ccc(NC(=O)Cc2csc(N=C(N)N)n2)cc1` [KHG23387, N-(4-(cyanomethyl)phenyl)-2-(2-(diaminomethyleneamino)thiazole-4-yl)acetamide hydrochloride], the inhibition at 10 µM falls from 21% to 3.2%.

First: CC(C)c1ccc(NC(=O)Cc2csc(N=C(N)N)n2)cc1 [KHG23379, 2-(2-(diaminomethyleneamino)thiazole-4-yl)-N-(4-isopropylphenyl)acetamide hydrochloride]
Second: NC(N)=Nc1nc(CC(=O)Nc2ccc([N+](=O)[O-])cc2)cs1 [KHG23380, 2-(2-(diaminomethyleneamino)thiazole-4-yl)-N-(4-nitrophenyl)acetamide hydrochloride]
The inhibition at 10 µM of the first is higher: 14.7% for the first, 11.4% for the second.

First: CCCCCCCCCCc1ccc(NC(=O)Cc2csc(N=C(N)N)n2)cc1 [KHG23381, N-(4-decylphenyl)-2-(2-(diaminomethyleneamino)thiazole-4-yl)acetamide hydrochloride]
Second: CCCCCCc1ccc(NC(=O)Cc2csc(N=C(N)N)n2)cc1 [KHG23383, 2-(2-(diaminomethyleneamino)thiazole-4-yl)-N-(4-hexylphenyl)acetamide hydrochloride]
The inhibition at 10 µM of the first is higher: 6.2% for the first, 5.7% for the second.

Going from `CCOC(=O)c1cccc(NC(=O)Cc2csc(N=C(N)N)n2)c1` [KHG23382, ethyl 3-(2-(2-(diaminomethyleneamino)thiazole-4-yl)acetamido)benzoate hydrochloride] to `CCOC(=O)c1ccc(NC(=O)Cc2csc(N=C(N)N)n2)cc1` [KHG23385, ethyl 4-(2-(2-(diaminomethyleneamino)thiazole-4-yl)acetamido)benzoate hydrochloride], the inhibition at 10 µM falls from 24% to 5.9%.

Compared with `CCCCOc1ccc(NC(=O)Cc2csc(N=C(N)N)n2)cc1` [KHG23384, N-(4-butoxyphenyl)-2-(2-(diaminomethyleneamino)thiazole-4-yl)acetamide hydrochloride], `NC(N)=Nc1nc(CC(=O)Nc2ccc(Oc3ccccc3)cc2)cs1` [KHG23389, 2-(2-(diaminomethyleneamino)thiazole-4-yl)-N-(4-phenoxyphenyl)acetamide hydrochloride] is higher in inhibition at 10 µM: 6.1% for the first, 25.4% for the second.

Going from `NC(N)=Nc1nc(CC(=O)Nc2c(Cl)cc(C(F)(F)F)cc2Cl)cs1` [KHG23391, 2-(2-(diaminomethyleneamino)thiazole-4-yl)-N-(2,6-dichloro-4-(trifluoromethyl)phenyl)acetamide hydrochloride] to `NC(N)=Nc1nc(CC(=O)Nc2c(Cl)cc(OC(F)(F)F)cc2Cl)cs1` [KHG23398, 2-(2-(diaminomethyleneamino)thiazole-4-yl)-N-(2,6-dichloro-4-(trifluoromethoxy)phenyl)acetamide hydrochloride], the inhibition at 10 µM falls from 0.8% to 0.2%.

First: NC(N)=Nc1nc(CC(=O)Nc2ccc(F)c(F)c2F)cs1 [KHG23392, 2-(2-(diaminomethyleneamino)thiazole-4-yl)-N-(2,3,4-trifluorophenyl)acetamide hydrochloride]
Second: COc1ccc(NC(=O)Cc2csc(N=C(N)N)n2)c(C)c1 [KHG23393, 2-(2-(diaminomethyleneamino)thiazole-4-yl)-N-(4-methoxy-2-methylphenyl)acetamide hydrochloride]
The inhibition at 10 µM of the first is higher: 22.7% for the first, 3.8% for the second.

Compared with `NC(N)=Nc1nc(CC(=O)Nc2cc(C(F)(F)F)cc(C(F)(F)F)c2)cs1` [KHG23394, N-(3,5-bis(trifluoromethyl)phenyl)-2-(2-(diaminomethyleneamino)thiazole-4-yl)acetamide hydrochloride], `NC(N)=Nc1nc(CC(=O)Nc2c(Cl)c(Cl)cc(Cl)c2Cl)cs1` [KHG23395, 2-(2-(diaminomethyleneamino)thiazole-4-yl)-N-(2,3,5,6-tetrachlorophenyl)acetamide hydrochloride] is lower in inhibition at 10 µM: 41.5% for the first, 2.7% for the second.

Same assay, conditions: HEK293, 10 μM; HEK293 cells expressing α1G; Table 4 (Chemical Formula 3 series)

Going from `NC(N)=Nc1nc(-c2ccc3[nH]c(=O)oc3c2)cs1` [KHG24022, 2-(4-(2-oxo-2,3-dihydrobenzo[d]oxazole-6-yl)thiazole-2-yl)guanidine hydrochloride] to `Cc1ccc(-c2csc(N=C(N)N)n2)cc1` [KHG24040, 2-(4-p-tolylthiazole-2-yl)guanidine hydrobromide], the inhibition at 10 µM rises from 10.1% to 16.2%.

Going from `NC(N)=Nc1nc(-c2ccc3ccccc3c2)cs1` [KHG24039, 2-(4-(naphthalene-2-yl)thiazole-2-yl)guanidine hydrochloride] to `COc1ccc(-c2csc(N=C(N)N)n2)cc1` [KHG24041, 2-(4-(4-methoxyphenyl)thiazole-2-yl)guanidine hydrobromide], the inhibition at 10 µM falls from 21.9% to 13.3%.

First: NC(N)=Nc1nc(-c2ccc([N+](=O)[O-])cc2)cs1 [KHG24389, 2-(4-(4-nitrophenyl)thiazole-2-yl)guanidine hydrobromide]
Second: NC(N)=Nc1nc(-c2cc(C(F)(F)F)cc(C(F)(F)F)c2)cs1 [KHG24392, 2-(4-(3,5-bis(trifluoromethyl)phenyl)thiazole-2-yl)guanidine hydrobromide]
The inhibition at 10 µM of the first is higher: 21.9% for the first, 12.9% for the second.

Tested on: not given
Experiment: not given
Details: not given

First: Cc1nc(N=C(N)N)sc1Cc1ccc(F)cc1.Cl
Second: Cl.NC(N)=Nc1nc(CC(=O)Nc2ccc(F)cc2)cs1 [KHG23171, 2-(2-(diaminomethyleneamino)thiazole-4-yl)-N-(4-fluorophenyl)acetamide hydrochloride]
The melting point of the first is higher: 245.6 °C for the first, 207.3 to 208.2 °C for the second.

First: Cl.NC(N)=Nc1nc(CC(=O)Nc2ccc(F)cc2Cl)cs1 [KHG23169, N-(2-chloro-4-fluorophenyl)-2-(2-(diaminomethyleneamino)thiazole-4-yl)acetamide hydrochloride]
Second: Cl.NC(N)=Nc1nc(CC(=O)Nc2cc(Cl)ccc2F)cs1 [KHG23172, N-(5-chloro-2-fluorophenyl)-2-(2-(diaminomethyleneamino)thiazole-4-yl)acetamide hydrochloride]
The melting point of the first is higher: 232.8 to 233.9 °C for the first, 209.3 to 210 °C for the second.

Work on `Cc1ccc(NC(=O)Cc2csc(N=C(N)N)n2)cc1Cl.Cl` [KHG23170, N-(3-chloro-4-methylphenyl)-2-(2-(diaminomethyleneamino)thiazole-4-yl)acetamide hydrochloride] yielded a melting point of 238.6 to 240.4 °C.
